{
  "source": "patent EP3305282A2",
  "about": "“COMPOSITION OF PRANLUKAST-CONTAINING SOLID PREPARATION WITH IMPROVED BIOAVAILABILITY AND METHOD FOR PREPARING SAME” (Sama Pharm Co., Ltd., priority 2015, dated 2016)",
  "origin": "cited, not measured here",
  "conditions": "pranlukast drug substance, BCS Class II",
  "data": [
    {"smiles": "O=C(Nc1cccc2c(=O)cc(-c3nnn[nH]3)oc12)c1ccc(OCCCCc2ccccc2)cc1", "note": "[Pranlukast, 4-oxo-8-[4-(4-phenylbutoxy)benzoylamino]-2-(tetrazol-5-yl)-4H-1-benzopyran hemihydrate]", "values": [
      {"measurement": "solubility", "result": 1.2, "unit": "µg/mL"}
    ]}
  ]
}
